{
  "source": "patent US20260297542A1",
  "about": "“HERBICIDE RESISTANT PLANTS” (SYNGENTA CROP PROTECTION AG, priority 2023, published 2026)",
  "key": {"[1]": {"target": "T1, AtPPO1 S305L V365M (SEQ ID NO.128) (Arabidopsis thaliana, UniProt P55826, S305L/V365M)", "T1 construct": "made in house; host or cells: E. coli BL21 (DE3) hemG, crude extract", "T1 sequence (P55826 35-537 S305L/V365M)": "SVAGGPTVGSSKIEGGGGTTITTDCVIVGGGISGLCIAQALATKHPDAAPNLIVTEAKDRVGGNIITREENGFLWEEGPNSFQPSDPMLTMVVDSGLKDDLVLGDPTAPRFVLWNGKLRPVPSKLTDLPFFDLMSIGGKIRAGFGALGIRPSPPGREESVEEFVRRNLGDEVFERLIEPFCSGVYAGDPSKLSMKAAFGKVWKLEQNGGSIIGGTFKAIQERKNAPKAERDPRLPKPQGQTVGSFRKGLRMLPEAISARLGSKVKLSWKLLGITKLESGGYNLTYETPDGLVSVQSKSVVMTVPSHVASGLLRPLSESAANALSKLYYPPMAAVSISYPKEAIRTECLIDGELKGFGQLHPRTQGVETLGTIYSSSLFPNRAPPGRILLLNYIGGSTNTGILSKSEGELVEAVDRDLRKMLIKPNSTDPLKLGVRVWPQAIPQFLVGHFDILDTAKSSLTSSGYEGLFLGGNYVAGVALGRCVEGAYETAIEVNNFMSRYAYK", "experiment": "fluorescent Protoporphyrinogen Oxidase assay, crude extract", "type": "biochemical", "conditions": "read-out: percentage inhibition", "description": "(§1) A pET24 plasmid containing a DNA sequence encoding each identified variant mutant of AtPPO1 derived from Arabidopsis thaliana, codon-optimised for expression in E. coli, and under control of a T7 promoter, was synthesised by Twist Bioscience. This plasmid was expressed in E. coli BL21 (DE3) hemG with 50 μg/mL kanamycin and 25 μg/mL chloramphenicol selection. Overnight cultures grown at 37° C. were used to inoculate 150 ml AIM (AIM-Terrific Broth Base including Trace elements, Formedium) in 500 ml shake flasks at a ratio of 1:100. Cultures were grown at 37° C., 200 rpm for 3 hours and then overnight at 26° C. Cells were harvested by 4° C. centrifugation for 20 minutes at 600 rpm. Cells were stored at −80° C. until extraction. 0.5-1 g of cell pellet from was thawed and resuspended in ratio of 1:1 in lysis buffer (20 mM Tris pH8, 500 mM sodium chloride, 10% glycerol, 1× complete Protease EDTA-free Inhibitor Tablet (Roche)). The resuspension was sonicated at 50% using 10-20 cycles of 10 seconds, 20 seconds off. After sonication Triton X-100 was added to the lysates at a final concentration of 0.5%. The lysates were centrifuged at 13.00 rpm for 10 min at 4° C. The crude extracts (i.e, supernatants) were stored at −80° C. Protein concentration was measured and calculated using the absorbance at 280 nm. Extracts were diluted 1 in 4 and 10 uL was analysed by SDS PAGE.\n(§2) Variant crude extracts were assayed in a fluorescent Protoporphyrinogen Oxidase assay in black 384 well plates with a clear bottom. The total volume of the reaction mixture was 100 ul and contained 100 mM K2HPO4 pH7.2, 1 mM Na2EDTA, 5 mM DTT, 20% glycerol (v/v), 0.025% Tween 20 (v/v). Reactions were started with addition of 1 uM protoporphyrinogen IX final assay concentration. Fluorescence was monitored over 30 min using a Tecan plate reader with an excitation wavelength of 405 nm, emission wavelength of 635 nm, gain of 90 and 15 flashes. 10 ul of 3-fold serial dilution of crude extract in 100 mM K2HPO4 pH7.2, 1 mM Na2EDTA, 5 mM DTT, 20% glycerol (v/v), 0.05% Tween 20 (v/v) was tested in the assay against 1% DMSO and 100 ppm herbicide B to determine the correct amount of crude extract to add to the assay to observe activity. 10 ul of the appropriate crude extract dilution was then tested in the fluorescent Protoporphyrinogen Oxidase assay against DMSO and 10-fold dose response of each compound (herbicides A to E) with a top rate of 100 ppm.\n(§3) The percentage inhibition was calculated as the activity in the presence of one of four concentrations of each herbicide compound A to E (note that the compounds labelled as A to E are identified hereinabove in the relevant section of the description) as a percentage of the enzyme activity in DMSO (Table 5)."}, "[2]": {"target": "T2, AtPPO1 S305L G404A Y426V T431R L479N (SEQ ID NO.127) (Arabidopsis thaliana, UniProt P55826, G404A/L479N/S305L/T431R/Y426V)", "T2 construct": "made in house; host or cells: E. coli BL21 (DE3) hemG, crude extract", "T2 sequence (P55826 35-537 S305L/G404A/Y426V/T431R/L479N)": "T1 sequence (P55826 35-537 S305L/V365M) with M331V, G370A, Y392V, T397R, L445N", "experiment": "fluorescent Protoporphyrinogen Oxidase assay, crude extract", "type": "biochemical", "conditions": "read-out: percentage inhibition", "description": "as §1, §2, §3"}},
  "note": "Substitutions are numbered along the chain they refer to.",
  "data": [
    {"molecule": "CCOC(=O)[C@]1(C)CC(c2cc(-n3c(=O)n(C)c(=S)n(C)c3=O)c(F)cc2Cl)=NO1", "note": "[Herbicide D, ethyl (5S)-3-[2-chloro-5-(3,5-dimethyl-2,6-dioxo-4-thioxo-1,3,5-triazinan-1-yl)-4-fluoro-phenyl]-5-methyl-4H-isoxazole-5-carboxylate]", "values": [
      {"measurement": "inhibition at 0.1 ppm", "setting": "[1]", "result": 51, "unit": "%"},
      {"measurement": "inhibition at 1 ppm", "setting": "[1]", "result": 84, "unit": "%"},
      {"measurement": "inhibition at 10 ppm", "setting": "[1]", "result": 96, "unit": "%"},
      {"measurement": "inhibition at 100 ppm", "setting": "[1]", "result": 100, "unit": "%"},
      {"measurement": "inhibition at 0.1 ppm", "setting": "[2]", "result": 13, "unit": "%"},
      {"measurement": "inhibition at 1 ppm", "setting": "[2]", "result": 40, "unit": "%"},
      {"measurement": "inhibition at 10 ppm", "setting": "[2]", "result": 75, "unit": "%"},
      {"measurement": "inhibition at 100 ppm", "setting": "[2]", "result": 92, "unit": "%"}
    ]},
    {"molecule": "CCOC(=O)C1(C)CC(c2cc(-n3c(=O)cc(C(F)(F)F)n(C)c3=O)c(F)cc2Cl)=NO1", "note": "(stereo not shown) [Herbicide C, 3-(2-chloro-4-fluoro-5-(3-methyl-2,6-dioxo-4-trifluoromethyl-3,6-dihydropyrimidin-1(2H)-yl)phenyl)-5-methyl-4,5-dihydroisoxazole-5-carboxylic acid ethyl ester]", "values": [
      {"measurement": "inhibition at 0.1 ppm", "setting": "[1]", "result": 45, "unit": "%"},
      {"measurement": "inhibition at 1 ppm", "setting": "[1]", "result": 76, "unit": "%"},
      {"measurement": "inhibition at 10 ppm", "setting": "[1]", "result": 95, "unit": "%"},
      {"measurement": "inhibition at 100 ppm", "setting": "[1]", "result": 100, "unit": "%"},
      {"measurement": "inhibition at 0.1 ppm", "setting": "[2]", "result": 47, "unit": "%"},
      {"measurement": "inhibition at 1 ppm", "setting": "[2]", "result": 57, "unit": "%"},
      {"measurement": "inhibition at 10 ppm", "setting": "[2]", "result": 83, "unit": "%"},
      {"measurement": "inhibition at 100 ppm", "setting": "[2]", "result": 96, "unit": "%"}
    ]},
    {"molecule": "C#CCN1C(=O)C(F)(F)Oc2cc(F)c(-n3c(=O)n(C)c(=S)n(C)c3=O)cc21", "note": "[Herbicide B, trifludimoxazin]", "values": [
      {"measurement": "inhibition at 0.1 ppm", "setting": "[1]", "result": 100, "unit": "%"},
      {"measurement": "inhibition at 1 ppm", "setting": "[1]", "result": 97, "unit": "%"},
      {"measurement": "inhibition at 10 ppm", "setting": "[1]", "result": 95, "unit": "%"},
      {"measurement": "inhibition at 100 ppm", "setting": "[1]", "result": 100, "unit": "%"},
      {"measurement": "inhibition at 0.1 ppm", "setting": "[2]", "result": 91, "unit": "%"},
      {"measurement": "inhibition at 1 ppm", "setting": "[2]", "result": 100, "unit": "%"},
      {"measurement": "inhibition at 10 ppm", "setting": "[2]", "result": 100, "unit": "%"},
      {"measurement": "inhibition at 100 ppm", "setting": "[2]", "result": 100, "unit": "%"}
    ]},
    {"molecule": "CC(C)N(C)S(=O)(=O)NC(=O)c1cc(-n2c(=O)cc(C(F)(F)F)n(C)c2=O)c(F)cc1Cl", "note": "[Herbicide E, saflufenacil]", "values": [
      {"measurement": "inhibition at 0.1 ppm", "setting": "[1]", "result": 0, "unit": "%"},
      {"measurement": "inhibition at 1 ppm", "setting": "[1]", "result": 71, "unit": "%"},
      {"measurement": "inhibition at 10 ppm", "setting": "[1]", "result": 91, "unit": "%"},
      {"measurement": "inhibition at 100 ppm", "setting": "[1]", "result": 100, "unit": "%"},
      {"measurement": "inhibition at 0.1 ppm", "setting": "[2]", "result": 11, "unit": "%"},
      {"measurement": "inhibition at 1 ppm", "setting": "[2]", "result": 48, "unit": "%"},
      {"measurement": "inhibition at 10 ppm", "setting": "[2]", "result": 75, "unit": "%"},
      {"measurement": "inhibition at 100 ppm", "setting": "[2]", "result": 92, "unit": "%"}
    ]},
    {"molecule": "CCOC(=O)COc1ncccc1Oc1cc(-n2c(=O)cc(C(F)(F)F)n(C)c2=O)c(F)cc1Cl", "note": "[Herbicide A, epyrifenacil]", "values": [
      {"measurement": "inhibition at 0.1 ppm", "setting": "[1]", "result": 41, "unit": "%"},
      {"measurement": "inhibition at 1 ppm", "setting": "[1]", "result": 64, "unit": "%"},
      {"measurement": "inhibition at 10 ppm", "setting": "[1]", "result": 92, "unit": "%"},
      {"measurement": "inhibition at 100 ppm", "setting": "[1]", "result": 91, "unit": "%"},
      {"measurement": "inhibition at 0.1 ppm", "setting": "[2]", "result": 9, "unit": "%"},
      {"measurement": "inhibition at 1 ppm", "setting": "[2]", "result": 45, "unit": "%"},
      {"measurement": "inhibition at 10 ppm", "setting": "[2]", "result": 69, "unit": "%"},
      {"measurement": "inhibition at 100 ppm", "setting": "[2]", "result": 88, "unit": "%"}
    ]}
  ]
}
